Measured values from ChEMBL document CHEMBL5360570, “Discovery of pyrazolo[3,4-b]pyridine derivatives as novel and potent Mps1 inhibitors for the treatment of cancer” (Eur J Med Chem, 2023).

How the values were obtained:
[1] = biological target: T1, Dual specificity protein kinase TTK (Homo sapiens) (UniProt P33981); experiment: Inhibition of Mps1 (unknown origin) at 1000 nM pretreated for 10 mins followed by substrate addition and measured after 60 mins in presence of ATP by ADP-glo kinase assay relative to control; settings: time 70.0 min
T1 sequence (whole entry): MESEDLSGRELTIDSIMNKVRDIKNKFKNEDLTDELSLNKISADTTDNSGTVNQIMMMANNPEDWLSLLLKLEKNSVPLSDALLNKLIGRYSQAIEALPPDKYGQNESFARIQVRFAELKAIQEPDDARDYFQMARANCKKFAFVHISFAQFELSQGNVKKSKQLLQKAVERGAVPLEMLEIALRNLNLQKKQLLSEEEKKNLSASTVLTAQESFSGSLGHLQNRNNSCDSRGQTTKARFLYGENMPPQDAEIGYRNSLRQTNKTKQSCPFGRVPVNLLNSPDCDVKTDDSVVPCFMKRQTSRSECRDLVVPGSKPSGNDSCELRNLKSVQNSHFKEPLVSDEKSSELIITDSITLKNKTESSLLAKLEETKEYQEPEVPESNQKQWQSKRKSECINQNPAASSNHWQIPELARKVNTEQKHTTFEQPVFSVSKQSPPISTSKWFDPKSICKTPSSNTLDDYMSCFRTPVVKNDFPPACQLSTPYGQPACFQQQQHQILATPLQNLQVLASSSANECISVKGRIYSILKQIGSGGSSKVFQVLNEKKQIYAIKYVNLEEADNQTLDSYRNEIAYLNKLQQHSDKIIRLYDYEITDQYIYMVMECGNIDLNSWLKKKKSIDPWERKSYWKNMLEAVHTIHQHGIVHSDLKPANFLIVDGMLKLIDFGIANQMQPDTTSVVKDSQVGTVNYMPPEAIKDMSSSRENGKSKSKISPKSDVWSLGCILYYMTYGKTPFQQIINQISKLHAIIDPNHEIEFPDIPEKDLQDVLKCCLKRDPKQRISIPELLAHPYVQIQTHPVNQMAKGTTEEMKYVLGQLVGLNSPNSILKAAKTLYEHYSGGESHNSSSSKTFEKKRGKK

MDA-MB-468 [2] = experiment: Antiproliferative activity against human MDA-MB-468 cells assessed inhibition of cell growth at 2 uM incubated for 72 hrs by CCK-8 assay relative to control; assay type: functional
MDA-MB-231 = experiment: Antiproliferative activity against human MDA-MB-231 cells assessed inhibition of cell growth incubated for 72 hrs by CCK-8 assay; assay type: functional
MCF7 = experiment: Antiproliferative activity against human MCF7 cells assessed inhibition of cell growth incubated for 72 hrs by CCK-8 assay relative to control; assay type: functional
MV4-11 = experiment: Antiproliferative activity against human MV4-11 cells assessed inhibition of cell growth incubated for 72 hrs by CCK-8 assay relative to control; assay type: functional
[3] = Antiproliferative activity against human RBE cells assessed inhibition of cell growth incubated for 72 hrs by CCK-8 assay relative to control; assay type: functional
[4] = biological target: T2, Dual specificity protein kinase TTK (Homo sapiens, UniProt P33981); experiment: Inhibition of Mps1 (unknown origin) pretreated for 10 mins followed by substrate addition and measured after 60 mins in presence of ATP by ADP-glo kinase assay
T2 sequence (P33981 whole entry): T1 sequence (whole entry)

MDA-MB-468 [5] = experiment: Antitumor activity against human MDA-MB-468 cells xenografted in BALB/c nude mouse assessed as tumor growth inhibition at 30 mg/kg, iv administered once daily for 21 days; assay type: functional; settings: MDA-MB-468, 504 h, time 21 day, read-out: TGI
MDA-MB-468 [6] = experiment: cells; assay type: functional, cell-based; settings: Homo sapiens, MDA-MB-468, 72 h
Description: Antiproliferative activity against human MDA-MB-468 cells assessed inhibition of cell growth incubated for 72 hrs by CCK-8 assay

HCT-116 = experiment: Antitumor activity against human HCT-116 cells xenografted in mouse assessed as tumor growth inhibition at 6.5 mg/kg, po; assay type: functional; settings: read-out: TGI
[7] = biological target: T2, Dual specificity protein kinase TTK; experiment: Inhibition of MPS1 (unknown origin)
[8] = Metabolic stability in human liver microsome assessed as half life preincubated for 10 mins followed by NADPH addition and measured upto 60 mins by LC-MS/MS analysis; assay type: ADME; settings: liver microsomes, time < 70 min
[9] = Metabolic stability in human microsome assessed as intrinsic clearance preincubated for 10 mins followed by NADPH addition and measured upto 60 mins by LC-MS/MS analysis; assay type: ADME; settings: microsomes, time < 70 min
[10] = Metabolic stability in human liver microsome assessed as intrinsic clearance preincubated for 10 mins followed by NADPH addition and measured upto 60 mins by LC-MS/MS analysis; assay type: ADME; settings: liver microsomes, time < 70 min, read-out: CLH

Structure (SMILES)	inhibition [1]	IC50 [4]	inhibition at 2 µM (MDA-MB-468 [2])	inhibition (INH) (MDA-MB-231)	inhibition (INH) (MCF7)	inhibition (INH) (MV4-11)	inhibition (INH) [3]	other results
CC#CC(=O)Nc1cc(N2CCOCC2)ccc1Nc1nc(-n2ccc(C(=O)Nc3c(CC)cccc3CC)c2)c2cn[nH]c2n1	–	> 1000 nM	-0.47%	–	–	–	–	–
C=CC(=O)Nc1cc(N2CCN(C(C)=O)CC2)ccc1Nc1nc(-n2ccc(C(=O)Nc3c(CC)cccc3CC)c2)c2cn[nH]c2n1	–	> 1000 nM	-2.46%	–	–	–	–	–
CCc1cccc(CC)c1NC(=O)c1ccn(-c2nc(Nc3ccc(N4CCN(C(C)=O)CC4)cc3NC(C)=O)nc3[nH]ncc23)c1	–	> 1000 nM	-2.92%	–	–	–	–	–
COc1ccc(Oc2cc(NCCC(F)(F)F)c3ncc(-c4ccc(C(=O)NC5CC5)c(C)c4)n3n2)c(F)c1F [BAY-1217389]	–	–	–	61.14%	–	–	–	inhibition in vivo at 30 mg/kg (MDA-MB-468 [5]): 67%
COc1cc(OC2CCN(C)CC2)ccc1Nc1ncc2c(n1)n(C1CCCC1)c(=O)n2C	–	–	–	57.08%	–	–	–	IC50 (MDA-MB-468 [6]): 2100 nM
C=CC(=O)Nc1cc(N2CCN(C(C)=O)CC2)ccc1Nc1nc(-c2cc3n(c2)CCN(c2c(CC)cccc2CC)C3=O)c2cn[nH]c2n1	–	> 1000 nM	0.38%	–	–	–	–	–
CCc1cccc(CC)c1NC(=O)c1ccn(-c2nc(Nc3ccc(N4CCOCC4)cc3N3CCN(C)CC3)nc3[nH]ncc23)c1	–	> 1000 nM	-1.94%	–	–	–	–	–
Cc1cc(-c2cnn3c(NC[C@H]4C[C@@](C)(O)C4)cc(Oc4cccnc4)nc23)ccc1C(=O)NC1CC1 [LUVIXASERTIB]	–	–	–	–	–	–	–	inhibition in vivo at 6.5 mg/kg (HCT-116): 68%
C=CC(=O)Nc1cc(N2CCOCC2)ccc1Nc1nc(-c2cc3n(c2)CCN(c2c(CC)cccc2CC)C3=O)c2cn[nH]c2n1	–	> 1000 nM	–	–	–	–	–	IC50 (MDA-MB-468 [6]): 2620 nM
CCC(=O)Nc1cc(N2CCN(C(C)=O)CC2)ccc1Nc1nc(-n2ccc(C(=O)Nc3c(CC)cccc3CC)c2)c2cn[nH]c2n1	–	> 1000 nM	-3.96%	–	–	–	–	–
C=CC(=O)Nc1cc(NC(=O)CC)ccc1Nc1nc(-n2ccc(C(=O)Nc3c(CC)cccc3CC)c2)c2cn[nH]c2n1	–	> 1000 nM	5.51%	–	–	–	–	–
CCc1cccc(CC)c1NC(=O)c1ccn(-c2nc(Nc3ccc(N4CCN(C(C)=O)CC4)cc3OC)nc3[nH]ncc23)c1	–	4.03 nM	–	–	–	–	–	IC50 (MDA-MB-468 [6]): 371 nM
C=C(F)C(=O)Nc1cc(N2CCN(C(C)=O)CC2)ccc1Nc1nc(-n2ccc(C(=O)Nc3c(CC)cccc3CC)c2)c2cn[nH]c2n1	–	> 1000 nM	-1.41%	–	–	–	–	–
C#CC(=O)Nc1cc(N2CCN(C(C)=O)CC2)ccc1Nc1nc(-n2ccc(C(=O)Nc3c(CC)cccc3CC)c2)c2cn[nH]c2n1	–	> 1000 nM	7.17%	–	–	–	–	–
COCCCNC(=O)c1cc(-c2ccc(OC)c(OC)c2)nc2[nH]nc(-c3ccc(OC)cc3)c12	–	–	–	–	–	–	–	IC50 [7]: 391 nM
O=C(O)Cc1ccccc1Nc1c(Cl)cccc1Cl [DICLOFENAC]	–	–	–	–	–	–	–	half-life [8]: 11 min; microsomal CLint [9]: 126 µL/min/mg; CLint scaled [10]: 113 mL/min/kg

Second part, led by results:

inhibition [1]	IC50 [4]	Structure (SMILES)	inhibition at 2 µM (MDA-MB-468 [2])	inhibition (INH) (MDA-MB-231)	inhibition (INH) (MCF7)	inhibition (INH) (MV4-11)	inhibition (INH) [3]	other results
44.5%	–	COc1cccc(-c2n[nH]c3nc(Nc4ccc(N5CCC(N(C)C)CC5)cc4OC)nc(OC4CCCC4)c23)c1	2.34%	22.71%	22.33%	-1.1%	4.83%	–
70.7%	–	COc1cc(N2CCC(N(C)C)CC2)ccc1Nc1nc(OC2CCCCC2)c2c(-c3ccc(OC)c(OC)c3)n[nH]c2n1	68.5%	66.51%	25.38%	20.47%	28.45%	–
15.2%	–	COc1ccc(-c2n[nH]c3nc(Nc4ccccc4)nc(OC4CCCC4)c23)cc1OC	19.9%	26.44%	4.54%	-13.46%	4.28%	–
35.7%	–	COc1ccc(-c2n[nH]c3nc(Nc4ccc(N5CCC(N(C)C)CC5)cc4OC)nc(OC4CCCC4)c23)cc1	5.57%	10.57%	10.76%	-10.86%	7.85%	–
84.7%	4.84 nM	COc1cc(N2CCC(N(C)C)CC2)ccc1Nc1nc(OC2CCCC2)c2c(-c3ccc(OC)c(OC)c3)n[nH]c2n1	94.3%	72.16%	25.87%	21.89%	36.32%	IC50 (MDA-MB-468 [6]): 1270 nM
49.1%	–	COc1cc(N2CCCCC2)ccc1Nc1nc(OC2CCCC2)c2c(-c3ccc(OC)c(OC)c3)n[nH]c2n1	-3.15%	25.74%	16.66%	-21.2%	16.61%	–
–	6.14 nM	CCc1cccc(CC)c1N1CCn2cc(-c3nc(Nc4ccc(N5CCOCC5)cc4OC)nc4[nH]ncc34)cc2C1=O	–	–	–	–	–	IC50 (MDA-MB-468 [6]): 663 nM
51.2%	–	COc1cc(N2CCN(C(C)=O)CC2)ccc1Nc1nc(OC2CCCC2)c2c(-c3ccc(OC)c(OC)c3)n[nH]c2n1	81.5%	26.44%	17.16%	8.63%	39.75%	IC50 (MDA-MB-468 [6]): 1000 nM
59.9%	–	COc1cc(N2CCOCC2)ccc1Nc1nc(OC2CCCC2)c2c(-c3ccc(OC)c(OC)c3)n[nH]c2n1	69.7%	21.19%	10.48%	-22.73%	11.97%	IC50 (MDA-MB-468 [6]): 2090 nM
63.9%	–	COc1cc(N2CCN(C)CC2)ccc1Nc1nc(OC2CCCC2)c2c(-c3ccc(OC)c(OC)c3)n[nH]c2n1	40.7%	24.33%	17.07%	-3.55%	4.83%	–
63.9%	–	COc1cc(N2CCC(N(C)C)CC2)ccc1Nc1nc(OC2CC2)c2c(-c3ccc(OC)c(OC)c3)n[nH]c2n1	30%	35.24%	20.26%	-17.18%	14.2%	–
–	8.52 nM	COc1cc(N2CCN(C(C)=O)CC2)ccc1Nc1nc(-n2ccc(C(=O)Nc3c(C)cccc3C)c2)c2cn[nH]c2n1	34.8%	–	–	–	–	–
–	3.81 nM	COc1cc(N2CCN(C)CC2)ccc1Nc1nc(-n2ccc(C(=O)Nc3c(C)cccc3C)c2)c2cn[nH]c2n1	–	–	–	–	–	IC50 (MDA-MB-468 [6]): 857 nM
–	3.37 nM	CCc1cccc(CC)c1NC(=O)c1ccn(-c2nc(Nc3ccc(N4CCN(C)CC4)cc3OC)nc3[nH]ncc23)c1	64.3%	–	–	–	–	–
